# Experimental data: US11911397B2, “Anordrin compositions and methods for treating diseases” (Zhejiang Jiachi Development Pharmaceuticals LTD, priority 2014, dated 2024)
# How the values were obtained:
# [1] = tested on: ovariectomized (OVX) mice; test: ovariectomized (OVX) mice model; format: in vivo; conditions: OVX mice; for body mass: after 6 weeks, intragastric; for total cholesterol (TC) in liver / triglyceride (TG) in liver: compared to controls
# [2] = tested on: Bcl-2 expression in MCF-7 cells; test: Bcl-2 expression in MCF-7 cells (western blotting, RT-qPCR); format: cell-based
# [3] = tested on: BRCA1, ApoD, COX7a mRNA in MCF-7 cells; test: RT-qPCR of genes regulated by the estrogen classic pathway in MCF-7 cells; format: cell-based; conditions: for expression of ApoD: FIG. 13B
# [4] = tested on: 8S and 4S estrogen-binding complexes in uterine cytosol; conditions: cited from earlier work
# [5] = tested on: endometrial epithelial cells; test: endometrial epithelial cells in mice (histology); conditions: monolayer vs polylayer
# From the text: Preparation of paraffin sections and HE staining: The tissue of mice was excised by surgery and fixed using 2.5% formaldehyde in 1×PBS.
# MCF-7 cells = test: glucose consumption and medium pH of MCF-7 cells; format: cell-based; conditions: MCF-7 cells, 60 hours
# normal mice = normal mice treated with tamoxifen, anordrin or both; conditions: tamoxifen 4.5 μg/g body mass per day, 9 weeks
# MDA-MB-231 cells = test: MDA-MB-231 cell growth, cell counting; format: cell-based; conditions: 6 μM anordrin
# [6] = target: T1, ER-α ligand binding domain (GST-ER-α-LBD) (Homo sapiens, UniProt P03372); test: 3H-E2 competition assay on GST-ER-α-LBD beads; conditions: 50 nM, 0.5 nM [H^3-E2], 1 μg GST-ER-α-LBD
# T1 construct: made in house; host or cells: E. coli
# T1 sequence (P03372 311-547 limits assumed): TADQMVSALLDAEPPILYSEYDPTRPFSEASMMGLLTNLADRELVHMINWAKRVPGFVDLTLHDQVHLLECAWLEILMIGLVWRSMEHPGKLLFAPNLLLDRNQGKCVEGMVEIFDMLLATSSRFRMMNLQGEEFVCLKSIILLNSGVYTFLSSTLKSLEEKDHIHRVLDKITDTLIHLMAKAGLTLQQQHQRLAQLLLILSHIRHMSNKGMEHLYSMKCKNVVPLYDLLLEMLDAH
smiles,measurement,setting,value
"C[C@]12CC[C@@H]3c4ccc(O)cc4CC[C@H]3[C@@H]1CC[C@@H]2O [E2, 17-beta estradiol]",fat deposits in paraffin sections of liver,[1],smaller fat deposits
same,body mass,[1],remained unchanged
same,total cholesterol (TC) in liver,[1],decreased amounts
same,triglyceride (TG) in liver,[1],decreased amounts
CC/C(=C(\c1ccccc1)c1ccc(OCCN(C)C)cc1)c1ccccc1 [tamoxifen],Bcl-2 protein expression,"[2]; 7.5 μM, western blotting",inhibit Bcl-2 expression
same,Bcl-2 protein expression,[2]; charcoal-stripped FBS in phenol red free DMEM,Neither tamoxifen nor anordrin or analog thereof (such as anordrin) were found to affect Bcl-2 protein expression
same,mRNA level of BRCA1,[3],significantly inhibited
same,transcription of COX7a mRNA,[3],significantly inhibited
same,expression of ApoD,[3],enhance expression of ApoD
same,binding to estrogen-binding complexes 4S and 8S,[4],bind both estrogen-binding complexes
same,endometrial epithelial cell proliferation,[5],induce proliferation
same,glucose concentration of media / glucose consumption,MCF-7 cells,inhibition
same,indicators of NASH syndrome,normal mice,increased indicators of NASH syndrome
same,liver TG levels,normal mice,increased
same,body mass,normal mice; normal mice,increase in body mass
same,MDA-MB-231 cell growth,MDA-MB-231 cells,no effect
CC(C)Oc1ccc2c(=O)c(-c3ccccc3)coc2c1 [ipriflavone],body mass,[1],increased
same,total cholesterol (TC) in liver,[1],no change
same,triglyceride (TG) in liver,[1],no change
C#C[C@@]1(OC(=O)CC)C[C@@H]2CC[C@@H]3[C@H](CC[C@@]4(C)[C@H]3CC[C@]4(C#C)OC(=O)CC)[C@H]2C1 [dinordrin],increase of Bcl-2 mRNA transcription,"[2]; 6 μM dinordrin, RT-qPCR",147.2%±22.73%
same,blocking of [H^3-E2] binding to GST-ER-α-LBD on beads,[6],63.2±5.7%
O=C(c1ccc(OCCN2CCCCC2)cc1)c1c(-c2ccc(O)cc2)sc2cc(O)ccc12 [raloxifene],expression of ApoD,[3],enhance expression of ApoD
"C#C[C@@]1(O)C[C@@H]2CC[C@@H]3[C@H](CC[C@@]4(C)[C@H]3CC[C@@]4(O)C#C)[C@@]2(C)C1 [Anordiol, 2β,7α-diethyl-A-nor-5α-androstane-2α,17β-diol]",binding to estrogen-binding complexes 4S and 8S,[4],preferentially bind the 8S complex
